US20060069132A1, “Azolecarboxamide herbicides” (priority 2004, published 2006)

Assays:
pigweed = assay: Test B pre-/postemergence herbicide test; format: in vivo, Amaranthus retroflexus; conditions: for Pigweed plant response rating: postemergence, visual rating, scale 0 (no effect) to 100 (complete control)
Method in brief: (§1)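 Greenhouse pot assay with simultaneous preemergence (treated seed) and postemergence (2–18 cm seedlings) applications of surfactant-containing, non-phytotoxic solvent formulations. Response scored visually 13–15 days later on a 0–100 scale, 100 meaning complete control.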

velvetleaf [1] = assay: Test B pre-/postemergence herbicide test; format: in vivo, Abutilon theophrasti; conditions: for Velvetleaf plant response rating: postemergence, visual rating, scale 0 (no effect) to 100 (complete control)
Method in brief: as §1

morningglory [2] = assay: Test B pre-/postemergence herbicide test; format: in vivo, Ipomoea coccinea; conditions: for Morningglory plant response rating: postemergence, visual rating, scale 0 (no effect) to 100 (complete control)
Method in brief: (§2)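 Formulation: non-phytotoxic solvent mix with surfactant. Timing: preemergence on seed and postemergence on 2–18 cm plants, applied concurrently. Readout after 13–15 d greenhouse: visual 0–100 control rating against controls.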

barnyardgrass [3] = assay: Test A pre-/postemergence herbicide test; format: in vivo, Echinochloa crus-galli
Method in brief: (§3)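 Greenhouse injury scoring (0–100, complete control = 100) at approximately ten days follows simultaneous pre- and postemergence application. Soil received a directed spray after seeding; seedlings of 2–10 cm at the one- to two-leaf stage were sprayed to runoff.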

rice = assay: Test B flooded paddy test; format: in vivo, Oryza sativa; conditions: 1000 g ai/ha, visual rating, scale 0 to 100 (0 no effect, 100 complete control), 13 to 15 days
Method in brief: (§4)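 Greenhouse test; postemergence application to plants at 1–4 leaves (2–18 cm); paddy species at 2 leaves; evaluated visually vs controls at 13–15 days; scale 0–100 (100 = complete control).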

giant foxtail [4] = assay: Test B pre-/postemergence herbicide test; format: in vivo, Setaria faberi; conditions: for Foxtail, Giant plant response rating: postemergence, visual rating, scale 0 (no effect) to 100 (complete control)
Method in brief: as §1

morningglory [5] = assay: Test A pre-/postemergence herbicide test; format: in vivo, Ipomoea spp.
Method in brief: as §3

lambsquarters = assay: Test B pre-/postemergence herbicide test; format: in vivo, Chenopodium album; conditions: for Lambsquarters plant response rating: postemergence, visual rating, scale 0 (no effect) to 100 (complete control)
Method in brief: as §1

large crabgrass [6] = assay: Test A pre-/postemergence herbicide test; format: in vivo, Digitaria sanguinalis
Method in brief: as §3

corn = assay: Test B pre-/postemergence herbicide test; format: in vivo, Zea mays; conditions: for Corn plant response rating: postemergence, visual rating, scale 0 (no effect) to 100 (complete control)
Method in brief: as §1

barnyardgrass [7] = assay: Test B flooded paddy test; format: in vivo, Echinochloa crus-galli; conditions: 1000 g ai/ha, visual rating, scale 0 to 100 (0 no effect, 100 complete control), 13 to 15 days
Method in brief: (§5)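 Scale 0–100: zero equals no visible effect, 100 complete control, judged by eye relative to controls. Timing: 13 to 15 days in greenhouse post-treatment. Growth stage at spraying: two leaves (paddy) or one to four leaves, 2–18 cm (postemergence).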

cocklebur = assay: Test B pre-/postemergence herbicide test; format: in vivo, Xanthium strumarium; conditions: for Cocklebur plant response rating: postemergence, visual rating, scale 0 (no effect) to 100 (complete control)
Method in brief: as §2

barnyardgrass [8] = assay: Test B pre-/postemergence herbicide test; format: in vivo, Echinochloa crus-galli; conditions: for Barnyardgrass plant response rating: postemergence, visual rating, scale 0 (no effect) to 100 (complete control)
Method in brief: as §2

velvetleaf [9] = assay: Test A pre-/postemergence herbicide test; format: in vivo, Abutilon theophrasti
Method in brief: as §3

large crabgrass [10] = assay: Test B pre-/postemergence herbicide test; format: in vivo, Digitaria sanguinalis; conditions: for Crabgrass, Large plant response rating: postemergence, visual rating, scale 0 (no effect) to 100 (complete control)
Method in brief: as §1

ducksalad = assay: Test B flooded paddy test; format: in vivo, Heteranthera limosa; conditions: 1000 g ai/ha, visual rating, scale 0 to 100 (0 no effect, 100 complete control), 13 to 15 days
Method in brief: as §5

blackgrass = assay: Test B postemergence herbicide test; format: in vivo, Alopecurus myosuroides; conditions: postemergence, visual rating, scale 0 (no effect) to 100 (complete control)
Method in brief: as §5

[11] = system: small flower umbrella sedge; assay: Test B flooded paddy test; format: in vivo, Cyperus difformis; conditions: 1000 g ai/ha, visual rating, scale 0 to 100 (0 no effect, 100 complete control), 13 to 15 days
Method in brief: as §5

wheat = assay: Test B postemergence herbicide test; format: in vivo, Triticum aestivum; parameters: key to Wheat plant response rating: 0 = no effect, 100 = complete control; conditions: postemergence, visual rating, scale 0 (no effect) to 100 (complete control)
Method in brief: as §4

giant foxtail [12] = assay: Test A pre-/postemergence herbicide test; format: in vivo, Setaria faberi
Method in brief: as §3

Surinam grass = assay: Test B pre-/postemergence herbicide test; format: in vivo, Urochloa decumbens; conditions: for Surinam Grass plant response rating: postemergence, visual rating, scale 0 (no effect) to 100 (complete control)
Method in brief: as §1

redroot pigweed = assay: Test A pre-/postemergence herbicide test; format: in vivo, Amaranthus retroflexus
Method in brief: as §3

wild oat = assay: Test B postemergence herbicide test; format: in vivo, Avena fatua; conditions: postemergence, visual rating, scale 0 (no effect) to 100 (complete control)
Method in brief: as §4

[13] = 125 g ai/ha, 0 = no effect, 100 = complete control, preemergence
[14] = 500 g ai/ha, visual rating 0-100, 0 no effect, 100 complete control, preemergence
[15] = Postemergence, 500 g ai/ha, 0 to 100 scale, 0 no effect, 100 complete control
[16] = Postemergence, 2000 g ai/ha, 0 to 100 scale, 0 no effect, 100 complete control
[17] = Preemergence, 2000 g ai/ha, visual rating, 0 to 100 scale (0 no effect, 100 complete control)
[18] = preemergence, 500 g ai/ha, visual injury, 0 to 100 scale (0 no effect, 100 complete control)

CC(=O)c1cccc(NC(=O)c2sc(C(C)(C)C)nc2C)c1 [Compound 196]
Pigweed plant response rating (0 to 100 scale) (pigweed; [13]): 0
Plant response rating, Pigweed (pigweed; [14]): 0
Pigweed plant response rating (pigweed; 125 g ai/ha): 10
Pigweed plant response rating (pigweed; 500 g ai/ha): 30
Velvetleaf plant response rating (0 to 100 scale) (velvetleaf [1]; [13]): 0
Plant response rating, Velvetleaf (velvetleaf [1]; [14]): 20
Velvetleaf plant response rating (velvetleaf [1]; 125 g ai/ha): 0
Velvetleaf plant response rating (velvetleaf [1]; 500 g ai/ha): 0
Morningglory plant response rating (0 to 100 scale) (morningglory [2]; [13]): 0
Plant response rating, Morningglory (morningglory [2]; [14]): 0
Morningglory plant response rating (morningglory [2]; 125 g ai/ha): 0
Morningglory plant response rating (morningglory [2]; 500 g ai/ha): 0
Barnyardgrass plant response rating (barnyardgrass [3]; [15]): 0
Plant response rating, Barnyardgrass (barnyardgrass [3]; [16]): 30
Barnyardgrass plant response rating (barnyardgrass [3]; [17]): 55
Barnyardgrass plant response rating (barnyardgrass [3]; [18]): 15
Rice plant response rating (rice): 0
Foxtail, Giant plant response rating (0 to 100 scale) (giant foxtail [4]; [13]): 0
Plant response rating, Foxtail, Giant (giant foxtail [4]; [14]): 0
Foxtail, Giant plant response rating (giant foxtail [4]; 125 g ai/ha): 0
Foxtail, Giant plant response rating (giant foxtail [4]; 500 g ai/ha): 0
Morningglory plant response rating (morningglory [5]; [15]): 5
Plant response rating, Morningglory (morningglory [5]; [16]): 0
Morningglory plant response rating (morningglory [5]; [17]): 10
Morningglory plant response rating (morningglory [5]; [18]): 0
Lambsquarters plant response rating (0 to 100 scale) (lambsquarters; [13]): 0
Plant response rating, Lambsquarters (lambsquarters; [14]): 0
Lambsquarters plant response rating (lambsquarters; 125 g ai/ha): 0
Lambsquarters plant response rating (lambsquarters; 500 g ai/ha): 30
Crabgrass, Large plant response rating (large crabgrass [6]; [15]): 0
Plant response rating, Crabgrass, Large (large crabgrass [6]; [16]): 0
Crabgrass, Large plant response rating (large crabgrass [6]; [17]): 50
Crabgrass, Large plant response rating (large crabgrass [6]; [18]): 25
Corn plant response rating (0 to 100 scale) (corn; [13]): 0
Plant response rating, Corn (corn; [14]): 0
Corn plant response rating (corn; 125 g ai/ha): 0
Corn plant response rating (corn; 500 g ai/ha): 10
Barnyardgrass plant response rating (barnyardgrass [7]): 20
Cocklebur plant response rating (0 to 100 scale) (cocklebur; [13]): 0
Plant response rating, Cocklebur (cocklebur; [14]): 0
Cocklebur plant response rating (cocklebur; 125 g ai/ha): 0
Cocklebur plant response rating (cocklebur; 500 g ai/ha): 20
Barnyardgrass plant response rating (0 to 100 scale) (barnyardgrass [8]; [13]): 0
Plant response rating, Barnyardgrass (barnyardgrass [8]; [14]): 40
Barnyardgrass plant response rating (barnyardgrass [8]; 125 g ai/ha): 0
Barnyardgrass plant response rating (barnyardgrass [8]; 500 g ai/ha): 30
Velvetleaf plant response rating (velvetleaf [9]; [15]): 0
Plant response rating, Velvetleaf (velvetleaf [9]; [16]): 0
Velvetleaf plant response rating (velvetleaf [9]; [17]): 0
Velvetleaf plant response rating (velvetleaf [9]; [18]): 0
Crabgrass, Large plant response rating (0 to 100 scale) (large crabgrass [10]; [13]): 0
Plant response rating, Crabgrass, Large (large crabgrass [10]; [14]): 100
Crabgrass, Large plant response rating (large crabgrass [10]; 125 g ai/ha): 30
Crabgrass, Large plant response rating (large crabgrass [10]; 500 g ai/ha): 30
Ducksalad plant response rating (ducksalad): 30
Blackgrass plant response rating (blackgrass; 125 g ai/ha): 0
Blackgrass plant response rating (blackgrass; 500 g ai/ha): 0
Sedge, Umbrella plant response rating [11]: 30
Wheat plant response rating (wheat; 125 g ai/ha): 0
Wheat plant response rating (wheat; 500 g ai/ha): 0
Foxtail, Giant plant response rating (giant foxtail [12]; [15]): 0
Plant response rating, Foxtail, Giant (giant foxtail [12]; [16]): 0
Foxtail, Giant plant response rating (giant foxtail [12]; [17]): 20
Foxtail, Giant plant response rating (giant foxtail [12]; [18]): 0
Surinam Grass plant response rating (0 to 100 scale) (Surinam grass; [13]): 0
Plant response rating, Surinam Grass (Surinam grass; [14]): 0
Surinam Grass plant response rating (Surinam grass; 125 g ai/ha): 0
Surinam Grass plant response rating (Surinam grass; 500 g ai/ha): 40
Pigweed plant response rating (redroot pigweed; [15]): 0
Plant response rating, Pigweed (redroot pigweed; [16]): 0
Pigweed plant response rating (redroot pigweed; [17]): 15
Pigweed plant response rating (redroot pigweed; [18]): 0
Oat, Wild plant response rating (wild oat; 125 g ai/ha): 0
Oat, Wild plant response rating (wild oat; 500 g ai/ha): 0
